{"source": "PubChem BioAssay AID296", "about": "(DTP/NCI, 2004)", "tested_on": "MX-1 breast xenograft, nude mice, tumor weight T/C", "experiment": "NCI In Vivo Anticancer Drug Screen. Data for tumor model Human Mammary Carcinoma MX-1 Xenograft (intrarenal inoculation) in NU/NU Swiss (nude) mice", "details": "endpoint: mean tumor weight change, higher = larger tumour", "method_in_brief": "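Tumor-bearing mice were treated with test compound alongside a vehicle-treated control group. Survival or tumor size was measured, and activity is expressed as the treated-group value divided by the control-group value.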", "key": {"[1]": {"details": "dose: 300.0 mg/kg/injection, schedule: Q04DX003 (sc), vehicle: saline with Tween-80"}, "[2]": {"details": "dose: 600.0 mg/kg/injection, schedule: Q04DX003 (sc), vehicle: saline with Tween-80"}, "[3]": {"details": "dose: 1200.0 mg/kg/injection, schedule: Q04DX003 (sc), vehicle: saline with Tween-80"}}, "note": "Several values for one entry are separate records, joined by “and”; a condition that tells them apart may be missing. Equal values may be shown once. Results filed as inconclusive are left out."}
{"smiles": "N[C@@H](Cc1ccc(N(CCCl)CCCl)cc1)C(=O)O", "values": [{"measurement": "T/C", "setting": "dose: 1.5 mg/kg/injection, schedule: Q04DX003 (sc), vehicle: suspension in saline", "value": "23 % of control and 34 % of control"}, {"measurement": "T/C", "setting": "dose: 2.0 mg/kg/injection, schedule: Q01DX010 (ip), vehicle: saline", "value": "-42 % of control and -36 % of control"}, {"measurement": "T/C", "setting": "dose: 3.0 mg/kg/injection, schedule: Q04DX003 (sc), vehicle: suspension in saline", "value": "4 % of control and 8 % of control"}, {"measurement": "T/C", "setting": "dose: 3.33 mg/kg/injection, schedule: Q04DX003 (ip), vehicle: saline", "value": "-15 % of control"}, {"measurement": "T/C", "setting": "dose: 3.33 mg/kg/injection, schedule: Q04DX003 (sc), vehicle: saline", "value": "7 % of control"}, {"measurement": "T/C", "setting": "dose: 4.0 mg/kg/injection, schedule: Q01DX010 (ip), vehicle: saline", "value": "-91 % of control"}, {"measurement": "T/C", "setting": "dose: 4.0 mg/kg/injection, schedule: Q01DX010 (sc), vehicle: suspension in saline", "value": "-100 % of control"}, {"measurement": "T/C", "setting": "dose: 6.0 mg/kg/injection, schedule: Q04DX003 (sc), vehicle: suspension in saline", "value": "-72 % of control and -58 % of control"}, {"measurement": "T/C", "setting": "dose: 6.65 mg/kg/injection, schedule: Q04DX003 (ip), vehicle: saline", "value": "-87 % of control"}, {"measurement": "T/C", "setting": "dose: 6.65 mg/kg/injection, schedule: Q04DX003 (sc), vehicle: saline", "value": "-51 % of control"}, {"measurement": "T/C", "setting": "dose: 12.0 mg/kg/injection, schedule: Q04DX003 (sc), vehicle: saline", "value": "-100 % of control"}, {"measurement": "T/C", "setting": "dose: 12.0 mg/kg/injection, schedule: Q04DX003 (sc), vehicle: suspension in saline", "value": "-100 % of control"}]}
{"smiles": "O=c1[nH]c2c(ccc3cnccc32)c2c1CCC2", "values": [{"measurement": "T/C", "setting": "dose: 50.0 mg/kg/injection, schedule: Q04DX003 (sc), vehicle: suspension in saline", "value": "71 % of control"}, {"measurement": "T/C", "setting": "dose: 200.0 mg/kg/injection, schedule: Q04DX003 (sc), vehicle: suspension in saline", "value": "70 % of control"}, {"measurement": "T/C", "setting": "dose: 400.0 mg/kg/injection, schedule: Q04DX003 (sc), vehicle: suspension in saline", "value": "100 % of control"}]}
{"smiles": "CC(=O)NC(CCc1ccc(Cl)c(Cl)c1)c1cccc(O)c(=O)c1", "note": "(stereo not drawn)", "values": [{"measurement": "T/C", "setting": "dose: 50.0 mg/kg/injection, schedule: Q04DX003 (sc), vehicle: Klucel (hydroxypropylcellulose) (HPC)", "value": "95 % of control"}, {"measurement": "T/C", "setting": "dose: 100.0 mg/kg/injection, schedule: Q04DX003 (sc), vehicle: Klucel (hydroxypropylcellulose) (HPC)", "value": "69 % of control"}, {"measurement": "T/C", "setting": "dose: 200.0 mg/kg/injection, schedule: Q04DX003 (sc), vehicle: Klucel (hydroxypropylcellulose) (HPC)", "value": "90 % of control"}, {"measurement": "T/C", "setting": "dose: 400.0 mg/kg/injection, schedule: Q04DX003 (sc), vehicle: Klucel (hydroxypropylcellulose) (HPC)", "value": "119 % of control"}]}
{"smiles": "O=S1(=O)CS(=O)(=O)OCCO1", "values": [{"measurement": "T/C", "setting": "dose: 37.5 mg/kg/injection, schedule: Q04DX003 (sc), vehicle: Klucel (hydroxypropylcellulose) (HPC)", "value": "25 % of control"}, {"measurement": "T/C", "setting": "dose: 75.0 mg/kg/injection, schedule: Q04DX003 (sc), vehicle: Klucel (hydroxypropylcellulose) (HPC)", "value": "42 % of control"}, {"measurement": "T/C", "setting": "dose: 150.0 mg/kg/injection, schedule: Q04DX003 (sc), vehicle: Klucel (hydroxypropylcellulose) (HPC)", "value": "7 % of control"}]}
{"smiles": "CC(=O)O[C@H]1C(=O)[C@@]2(C)[C@H]([C@H](OC(=O)c3ccccc3)[C@]3(O)C[C@H](OC(=O)[C@H](O)[C@@H](NC(=O)c4ccccc4)c4ccccc4)C(C)=C1C3(C)C)[C@]1(OC(C)=O)CO[C@@H]1C[C@@H]2O", "values": [{"measurement": "T/C", "setting": "dose: 2.5 mg/kg/injection, schedule: Q01DX010 (sc), vehicle: Klucel (hydroxypropylcellulose) (HPC)", "value": "83 % of control"}, {"measurement": "T/C", "setting": "dose: 5.0 mg/kg/injection, schedule: Q01DX010 (sc), vehicle: Klucel (hydroxypropylcellulose) (HPC)", "value": "77 % of control"}, {"measurement": "T/C", "setting": "dose: 10.0 mg/kg/injection, schedule: Q01DX010 (sc), vehicle: Klucel (hydroxypropylcellulose) (HPC)", "value": "46 % of control"}, {"measurement": "T/C", "setting": "dose: 20.0 mg/kg/injection, schedule: Q01DX010 (sc), vehicle: Klucel (hydroxypropylcellulose) (HPC)", "value": "73 % of control"}, {"measurement": "T/C", "setting": "dose: 40.0 mg/kg/injection, schedule: Q01DX010 (sc), vehicle: Klucel (hydroxypropylcellulose) (HPC)", "value": "48 % of control"}, {"measurement": "T/C", "setting": "dose: 80.0 mg/kg/injection, schedule: Q01DX010 (sc), vehicle: Klucel (hydroxypropylcellulose) (HPC)", "value": "36 % of control"}, {"measurement": "T/C", "setting": "dose: 400.0 mg/kg/injection, schedule: Q01DX010 (sc), vehicle: Klucel (hydroxypropylcellulose) (HPC)", "value": "6 % of control"}]}
{"smiles": "COc1cc(C(=O)N/N=C/c2cccc([N+](=O)[O-])c2)cc(OC)c1OC", "values": [{"measurement": "T/C", "setting": "dose: 150.0 mg/kg/injection, schedule: Q04DX003 (sc), vehicle: saline with Tween-80", "value": "178 % of control"}, {"measurement": "T/C", "setting": "[1]", "value": "114 % of control"}, {"measurement": "T/C", "setting": "[2]", "value": "67 % of control"}, {"measurement": "T/C", "setting": "[3]", "value": "108 % of control"}]}
{"smiles": "CN(C)CCN1C(=O)c2cccc3cc(N)cc(c23)C1=O", "values": [{"measurement": "T/C", "setting": "dose: 16.0 mg/kg/injection, schedule: Q04DX003 (sc), vehicle: saline with Tween-80", "value": "80 % of control"}, {"measurement": "T/C", "setting": "dose: 32.0 mg/kg/injection, schedule: Q04DX003 (sc), vehicle: saline with Tween-80", "value": "78 % of control"}]}
{"smiles": "O=c1[nH]c(=O)n(C2OC(CO)C(O)C2O)cc1F", "note": "(stereo not drawn)", "values": [{"measurement": "T/C", "setting": "dose: 9.38 mg/kg/injection, schedule: Q01DX010 (sc), vehicle: saline", "value": "21 % of control"}]}
{"smiles": "ClC(Cl)(Cl)C1=NCc2nnn(Cc3ccccc3)c2N1", "values": [{"measurement": "T/C", "setting": "[1]", "value": "92 % of control"}, {"measurement": "T/C", "setting": "[2]", "value": "61 % of control"}, {"measurement": "T/C", "setting": "[3]", "value": "66 % of control"}, {"measurement": "T/C", "setting": "dose: 2400.0 mg/kg/injection, schedule: Q04DX003 (sc), vehicle: saline with Tween-80", "value": "101 % of control"}]}
{"smiles": "OCC1OC(n2cnc3c(Cl)ncnc32)C(O)C1O", "note": "(stereo not drawn)", "values": [{"measurement": "T/C", "setting": "dose: 300.0 mg/kg/injection, schedule: Q04DX003 (sc), vehicle: saline", "value": "74 % of control"}, {"measurement": "T/C", "setting": "dose: 600.0 mg/kg/injection, schedule: Q04DX003 (sc), vehicle: saline", "value": "84 % of control"}, {"measurement": "T/C", "setting": "dose: 1200.0 mg/kg/injection, schedule: Q04DX003 (sc), vehicle: saline", "value": "80 % of control"}]}
